Measured values published in PMC10916382, “Repurposing screen identifies novel candidates for broad-spectrum coronavirus antivirals and druggable host targets” (Antimicrobial Agents and Chemotherapy, 2024).
Where a name gives a salt, the structure may show the parent alone. Read-outs that look alike come from different tables or passages of the source. Where a SMILES comes first, the peptide text is derived from it. The star is where a group is joined. Cbz = O=C(OCc1ccccc1)*; CHN2 = [N-]=[N+]=C*

Tests used:
[1] = tested on: Huh-7.5/F-Luc cells
[2] = tested on: HCoV-229E; assay: microbe, parasite or virus in culture; type: cell-based, Homo sapiens sapiens
[3] = tested on: SARS-CoV-2
[4] = HCoV 229E infection, dose series, max. dose 5 µM, read-out: IC50
[5] = Huh-7.5 cells, dose series, maximum tested dose 5 µM

Compound | IC50 [2, 4] | Anti-SARS-CoV-2 screening on Calu-3 cells: intracellular SARS-CoV-2 infection measured via immunofluorescence imaging [% of control] ([3]; Calu-3 cells) | CC50 (µM) [1, 5] | % cell viability at max. dose [5 µM] ([1]; at max. dose 5 µM) | Anti-SARS-CoV-2 screening on Calu-3 cells: viability [% of control] ([3]; Calu-3 cells) | also measured
CC1(C)CC[C@]2(NC(=O)C(C)(F)F)CC[C@]3(C)[C@H](C(=O)C=C4[C@@]5(C)C=C(C#N)C(=O)C(C)(C)[C@@H]5CC[C@]43C)[C@@H]2C1 [RTA-63415 / Omaveloxolone] | 0.08 µM | 99.52 % of control |  |  |  | % cell viability at max. dose [5 µM] [1]: 77.27%; CC50 (µM) [1]: greater than maximum tested dose; Anti-SARS-CoV-2 screening on Calu-3 cells: viability [% of control] [3]: 122.72 % of control
c1ccc(CCCC(Oc2ccccc2OCc2ccccc2)C2=NCCN2)cc1 (centres unmarked) [MDL 102588] | 0.52 µM | 108.93 % of control | greater than maximum tested dose | 109.08% | 101.49 % of control | 
CN1CC[C@H](c2c(O)cc(O)c3c(=O)cc(-c4ccccc4Cl)oc23)[C@H](O)C1 [Flavopiridol (Alvocidib)] | 0.14 µM | 15.82 % of control | greater than maximum tested dose | 115.14% | 90.90 % of control | 
CC/C(=C(\c1ccc(O)cc1)c1ccc(OCCNC)cc1)c1ccccc1.Cl [Endoxifen (hydrochloride)] | 0.56 µM | 114.51 % of control | greater than maximum tested dose | 148.79% | 90.44 % of control | 
COc1ccc2cc(S(=O)(=O)N[C@H](CC(=O)N[C@H](Cc3ccc(CN4[C@H](C)CCC[C@@H]4C)cc3)C(=O)N(C)C(C)C)c3ccc4c(c3)OCO4)ccc2c1 [SSR240612] | 0.53 µM | 125.70 % of control | greater than maximum tested dose | 127.22% | 108.83 % of control | 
COc1cc2c(cc1N1C[C@@H](C)N[C@@H](C)C1)N(C(=O)c1ccc(-c3ccc(-c4noc(C)n4)cc3C)cc1)CC2 [SB-616234-A] | 0.57 µM | 117.99 % of control | greater than maximum tested dose | 143.19% | 119.80 % of control | 
CCN(CC)CCCN1c2ccccc2Sc2ccc(Cl)cc21.Cl [Chlorproethazine HCl] | 0.83 µM | 133.96 % of control | greater than maximum tested dose | 142.02% | 91.47 % of control | 
Oc1ccc2c(c1)CC[C@H](c1ccccc1)[C@H]2c1ccc(OCCN2CCCC2)cc1 [Lasofoxifene tartrate] | 0.54 µM | 99.99 % of control | greater than maximum tested dose | 142.22% | 103.26 % of control | 
CC(C)c1ccc2c(c1)C(N1CCN(CCO)CC1)Cc1ccc(F)cc1S2 (centres unmarked) [isofloxythepin] | 0.79 µM | 105.07 % of control | greater than maximum tested dose | 141.51% | 97.70 % of control | 
Oc1cccc[c]1[Hg][Cl] [RFM-006-841-7] |  | 99.62 % of control |  |  | 123.69 % of control | % cell viability at max. dose [5 µM] ([1]; Huh-7.5/F-Luc cells, 5 µM): 91.70%; CC50 (µM) ([1]; Huh-7.5/F-Luc cells, maximum tested dose 5 µM): greater than maximum tested dose; IC50 ([2]; HCoV-229E/R-Luc on Huh-7.5/F-Luc cells, dose series, max. dose 5 µM, read-out: IC50 (µM), HCoV 229E): 1.35 µM
CN(C)CCC(Sc1cccc2ccccc12)c1cccs1 (centres unmarked) [VUFB 18271] | 0.93 µM | 114.60 % of control | greater than maximum tested dose | 117.62% | 105.83 % of control | 
CC(C)CC(NC(=O)OCc1ccccc1)C(=O)NC(C(=O)NCC(=O)C=[N+]=[N-])C(C)C (stereo not drawn) [Z LVG CHN2] (Cbz-Leu-Val-Gly-CHN2; configuration not given here) |  | 105.09 % of control | greater than maximum tested dose | 182.31% | 97.82 % of control | IC50 ([2]; read-out: IC50): 0.07 µM
O=S(=O)(Nc1ccc(CCNC[C@H](O)c2cccnc2)cc1)c1ccc(-c2nc(-c3ccc(C(F)(F)F)cc3)cs2)cc1 [L 796568] | 0.77 µM | 111.47 % of control | greater than maximum tested dose | 149.63% | 84.86 % of control | 
Cc1c(-c2ccccc2)oc2ccc(OCCCCCCN3CCC(O)CC3)cc2c1=O [NPC 16377] | 1.07 µM | 119.40 % of control | greater than maximum tested dose | 107.69% | 101.43 % of control | 
CC(C)c1ccc(C(=O)c2cccs2)c(SCCCCCCCCN(C)C)n1 [Y 29794] | 0.33 µM | 99.31 % of control | greater than maximum tested dose | 121.37% | 88.61 % of control | 
C=C1C[C@@H]2CC[C@@]34C[C@H]5O[C@H]6[C@@H](O3)[C@H]3O[C@H](CC[C@@H]3O[C@H]6[C@H]5O4)CC(=O)C[C@@H]3[C@@H](OC)[C@@H](C[C@H](O)CN)O[C@H]3C[C@H]3O[C@@H](CC[C@@H]1O2)C[C@@H](C)C3=C [Eribulin (mesylate)] | 0.05 µM | 29.49 % of control | greater than maximum tested dose | 97.37% | 41.43 % of control | 
COc1ccc2cc1Oc1ccc(cc1)C[C@H]1c3c(cc4c(c3Oc3cc5c(cc3OC)CCN(C)[C@@H]5C2)OCO4)CCN1C [Cepharanthine] |  |  | greater than maximum tested dose |  |  | IC50 ([2]; Human coronavirus 229E, Huh7.5): 0.47 µM
CC(C)(O)c1ccc2c(c1)/C(=C/CCN1CC[C@](O)(c3ccc(Cl)cc3)C(C)(C)C1)c1cccnc1CO2 [MLN-3897] | 0.96 µM | 101.50 % of control | greater than maximum tested dose | 122.09% | 106.59 % of control | 
CC[C@H](NC(=O)[C@H](CS(=O)(=O)CC1CC1)N[C@@H](c1ccc(F)cc1)C(F)(F)F)C(=O)C(=O)NC1CC1 [VBY-825, reference compound] | 0.21 µM | 101.42 % of control | greater than maximum tested dose | 147.45% | 100.68 % of control | antiviral activity against HCoV-229E ([2]; Huh-7.5/F-Luc cells): antiviral activity
CN(C)C(C)(C)CSc1nc2ccccc2cc1-c1ccccc1 [ICI-170809] | 0.52 µM | 103.59 % of control | greater than maximum tested dose | 138.76% | 98.23 % of control | 
COc1cc(/C=C/C=C/C(=O)NCCN2CCC(OC(c3ccccc3)c3ccccc3)CC2)ccc1O [TMK-777] | 1.13 µM | 102.42 % of control | greater than maximum tested dose | 150.43% | 98.98 % of control | 
CCNCc1cncc(-c2ccc3[nH]nc(-c4nc5c(F)cc(F)cc5[nH]4)c3c2)c1C [AG-024322] | 0.78 µM | 108.94 % of control | greater than maximum tested dose | 151.27% | 54.61 % of control | 
CN(C)CCCOC(CCCCc1ccccc1)c1ccccc1 (centres unmarked) [SM-3163] | 0.77 µM | 105.69 % of control | greater than maximum tested dose | 166.12% | 103.94 % of control | 
Nc1ncccc1-c1nc2ccc(-c3ccccc3)nc2n1-c1ccc(C2(N)CCC2)cc1 [ARQ-092 (Miransertib mesylate)] |  | 126.86 % of control | greater than maximum tested dose | 98.72% | 27.64 % of control | 
OC(CNCC(O)C1CCc2cc(F)ccc2O1)C1CCc2cc(F)ccc2O1 (centres unmarked) [Nebivolol HCl] |  |  | greater than maximum tested dose |  |  | IC50 ([2]; Human coronavirus 229E, Huh7.5): 1 µM
